In US7317115B2, “Mandelates salts of substituted tetracyclic tetrahydrofuran derivatives” (Janssen Pharmaceutica, N.V., priority 2001, dated 2008):
“Also recorded” adds a separate entry of the source.

Tests used:
Format in all cases: physicochemical
[1] = Adsorption and desorption of water; settings: 25° C., different relative humidity; listed as tartrate salt
Experimental: The adsorption and desorption of water at 25° C. at different conditions of relative humidity is investigated on an amount of ±10 mg of each salt. The weight change as a function of relative humidity is registered.

[2] = Crystallographic stability (TGA, DSC, IR after storage); on IR: key: ~Ref: identical with reference
Experimental: The stability of the crystal structure of the salt is studied after storage of the compounds for a period of two weeks at room temperature (RT) under either 5%, 75% and 25° C./60% relative humidity (RH). The samples are analyzed with thermogravimetry (TGA), differential scanning calorimetry (DSC) and infrared spectroscopy (IR).

[3] = Chemical stability (HPLC and visual inspection after storage); settings: for HPLC Sum of impurities: in % (unit assumed)
Experimental: In the chemical stability test program the salts are stored for periods of 2, 4 and 8 weeks under different conditions. These conditions are 40° C./75% RH, 50° C., daylight, RT/5% RH, RT/75% RH, 25° C./60% RH and artificial light. The mandelate salt and the ditoluoyltartrate salt are also stored 8 hours in 0.3 da ICH light. The compounds are analyzed after storage by HPLC and by visual inspection.

## B-(2α,3aα,12bβ)-11-fluoro-3,3a,8,12b-tetrahydro-N-methyl-2H-dibenzo-[3,4:6,7]cyclohepta[1,2-b]furan-2 methanamine [Tartrate]
[1]
  water adsorption/desorption behaviour (weight change as a function of relative humidity): less stable but the weight change as a function of the relative humidity is very small; also recorded: good adsorption desorption profile
[2]; 0 days
  Appearance: white
  DSC Max: 158.8 °C
  DSC ΔH: 85.9 J/g
  TGA <100° C.: 0%
[2]; storage two weeks under different relative humidities, listed as tartrate salt
  crystallographic stability: crystallographic stable; also recorded: crystallographically stable
[2]; two weeks, RT/56% RH
  Appearance: white
  DSC Max: 159.0 °C
  DSC ΔH: 86.2 J/g
  IR: ~Ref
  TGA <100° C.: 0.1%
[2]; two weeks, RT/75% RH
  Appearance: white
  DSC Max: 159.0 °C
  DSC ΔH: 85.5 J/g
  TGA <100° C.: 0%
[2]; two weeks, RT/<5% RH
  Appearance: white
  DSC Max: 160.3 °C
  DSC ΔH: 86.4 J/g
  TGA <100° C.: 0%
[3]; 25° C./60% RH, 4 weeks
  Appearance: white
  HPLC Sum of impurities: 0.75
[3]; 25° C./60% RH, 8 weeks
  Appearance: white
  HPLC Sum of impurities: 0.77
[3]; 40° C./75% RH, 2 weeks
  Appearance: white
  HPLC Sum of impurities: 0.72
[3]; 40° C./75% RH, 4 weeks
  Appearance: white
  HPLC Sum of impurities: 0.83
[3]; 40° C./75% RH, 8 weeks
  Appearance: almost white
  HPLC Sum of impurities: 0.93
[3]; 50° C., 2 weeks
  Appearance: white
  HPLC Sum of impurities: 0.72
[3]; 50° C., 4 weeks
  Appearance: white
  HPLC Sum of impurities: 0.77
[3]; 50° C., 8 weeks
  Appearance: almost white
  HPLC Sum of impurities: 0.79
[3]; Artificial light (2 weeks)
  Appearance: white
  HPLC Sum of impurities: 0.79
[3]; Daylight, 2 weeks
  Appearance: white
  HPLC Sum of impurities: 0.75
[3]; Daylight, 4 weeks
  Appearance: almost
  HPLC Sum of impurities: 0.85
[3]; Daylight, 8 weeks
  Appearance: slightly
  HPLC Sum of impurities: 0.91
[3]; RT/75% RH, 4 weeks
  Appearance: white
  HPLC Sum of impurities: 0.72
[3]; RT/75% RH, 8 weeks
  Appearance: white
  HPLC Sum of impurities: 0.80
[3]; RT/<5% RH, 4 weeks
  Appearance: white
  HPLC Sum of impurities: 0.73
[3]; RT/<5% RH, 8 weeks
  Appearance: white
  HPLC Sum of impurities: 0.75
[3]; Reference (2 weeks)
  Appearance: white
  HPLC Sum of impurities: 0.72
[3]; storage 2, 4 and 8 weeks under different conditions, listed as tartrate salt
  chemical stability: showed a sensitivity towards 40° C./70% RH and light; also recorded: shows sensitivity towards higher humidities and light
